Series [1] concerns the target T1, TbAAT2-4 (Trypanosoma brucei, UniProt Q57Y06).
T1 construct: gene Tb04.1D20.560; full-length ORF amplified from T. brucei 427 genomic DNA, vector pDR197, expressed in Saccharomyces cerevisiae 22Δ8AA; no tag told
The series is described as follows: competition of radiolabelled histidine uptake in S. cerevisiae […]Δ8AA. The format is cell-based. To be noted: 200 μM histidine, 2 mM competitor, pH 5.5, 30 °C.

Series [2] relates to N[C@@H](Cc1c[nH]cn1)C(=O)O. Nature of the series: cells, lysate or membranes. To be noted: L-[3H]histidine, labelled compound, 50 mM potassium phosphate pH 5.5, 0.6 M sorbitol, 100 mM glucose preincubation, 30 °C, empty-vector uptake subtracted.
Substrate in series [3]: NCCC[C@H](N)C(=O)O
The series is described as follows: cells, lysate or membranes. Conditions: L-[3H]ornithine, labelled compound, 50 mM potassium phosphate pH 5.5, 0.6 M sorbitol, 100 mM glucose preincubation, 30 °C, empty-vector uptake subtracted.

T1 sequence (Q57Y06 entry or part of it): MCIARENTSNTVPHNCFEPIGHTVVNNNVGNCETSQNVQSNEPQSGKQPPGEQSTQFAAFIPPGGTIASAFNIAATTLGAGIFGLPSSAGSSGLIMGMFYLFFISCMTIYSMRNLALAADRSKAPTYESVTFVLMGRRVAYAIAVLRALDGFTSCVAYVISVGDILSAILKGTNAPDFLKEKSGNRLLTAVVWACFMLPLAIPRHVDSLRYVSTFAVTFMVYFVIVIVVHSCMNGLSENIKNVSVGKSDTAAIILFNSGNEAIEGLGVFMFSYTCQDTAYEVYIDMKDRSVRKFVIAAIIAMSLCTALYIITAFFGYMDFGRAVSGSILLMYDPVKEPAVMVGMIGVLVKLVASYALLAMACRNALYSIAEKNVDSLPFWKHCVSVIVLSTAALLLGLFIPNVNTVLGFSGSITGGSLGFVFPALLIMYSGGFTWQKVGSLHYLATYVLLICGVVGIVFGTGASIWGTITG

Turning to `N=C(N)NCCC[C@H](N)C(=O)O` [arginine], the “% of control uptake at 2 mM” value in series [1] is “TbAAT2-4-mediated histidine uptake was inhibited by several amino acids, including arginine and lysine”.

For the molecule `NCCCC[C@H](N)C(=O)O` [lysine], the “% of control uptake at 2 mM” value in series [1] (also supports yeast growth on lysine) was “TbAAT2-4-mediated histidine uptake was inhibited by several amino acids, including arginine and lysine”.

One may read the Km as the concentration of substrate that gives half-maximal velocity. Take “TbAAT2-4 (Trypanosoma brucei brucei TREU927)”: the Km in series [2] stood at 20.5 ± 8.6 µM.

B1: TbAAT10-1 (Trypanosoma brucei brucei TREU927) (protein)
chain: MSNVRGNITPAVVYASNEPNALNASDDGIKNYEAYEDIQSNNSESKFAPFSKLSKKIAAVIPPGGIFASAFNIAATTLGAGIFGLPSTANGSGLVMGILYLVIINCMTIYSMYNLALAAERSKALTYEGVTFVVLGRWAAYAIAAVRAFDGFTSCIAYVISVGDIFSSILKGTDAPEFWKGNTGNRLLTALLWLCCMLPLVIPRHVDSLRHVSTCAVTFMVYFVIVIVVHSCLNGLPENIKDVSVGKSDTAAIILFNSGNAAVEGLGVFMFSYTCQDTAYEIYMDMKDRSVRKFVISSAIAMCMCTVLYILTVFFGYMDFGRDVTGSILLMYDPVNEPAVMVGMIGVLVKLIASYALLAMACRNALYSIAGKNADVLPFWKHCASVVTLSVAALVLGLFIPKVNTVLGFAGSITGGSLGYIFPSLLLMYSGGFTWQRVGPFHYLVAYGLLISGVVGVVFGTGATIWGTIVG
On to B1, for which the Km in series [3] was 4.3 ± 1.5 µM.
